Data on three compounds can be found in patent US11046716B2, “Beta-lactamase inhibitors” (priority 2015, dated 2021).

For test [1], the system named is K. pneumoniae producing the Class D carbapenemase OXA-48. In words: Broth microdilution MIC assay with meropenem, K. pneumoniae OXA-48. In kind it is cell-based. The following applies: for MIC (μg/mL) of Exemplary Compounds in presence of fixed β-lactams: K. p. 11978 OXA-48: Fixed Mero (meropenem) 4 μg/mL. An excerpt:
(§1) To determine the ability of test compounds to potentiate the inhibition of the growth of bacterial strains that produce beta-lactamase enzymes in the presence of a β-lactam antibiotic, classic cell based broth microdilution MIC assays were employed. Six bacteria strains producing beta-lactamase enzymes were used: E. coli expressing the Class A Extended Spectrum Beta-Lactamase (ESBL) CTX-M-15, E. cloacae expressing the Class C P99, K. pneumoniae expressing the Class A carbapenemase KPC-2, P. aeruginosa expressing the Class B carbapenemase VIM-2, K. pneumoniae expressing the class A carbapenemase KPC-2 and the class B carbapenemase VIM-4, and K. pneumoniae producing the Class D carbapenemase OXA-48. The assay was conducted in Cation Adjusted Mueller Hinton Broth (CAMHB, BD #212322, BD Diagnostic Systems, Sparks, Md.). Bacteria strains were grown for 3-5 hours in CAMBH broth. Test compounds (Examples 1-94) were added to a microtiter plate in 2-fold serial dilutions in CAMHB in a final concentration range of 16 μg/mL to 0.125 μg/ml. An overlay of CAMHB containing a Beta-lactam was added to the compounds at a final static concentration of 4 μg/ml. […] In addition to the titration of test compounds the MICs of a panel of control beta-lactams is also tested to ensure the strains are behaving consistently from test to test. Once the test compound and antibiotics are added the plates can be inoculated according to CLSI broth microdilution method. After inoculation the plates are incubated for 16-20 hours at 37° C. then the Minimal Inhibitory Concentration (MIC) of the test compound is determined visually.
(§2) Using the methodology described above, examples of the current invention were evaluated for their ability to inhibit the growth of β-lactamase-producing bacteria in the presence of a β-lactam antibiotic.

For a further test, the target named is T1, AmpC (Enterobacter cloacae, UniProt P05364).
T1 construct: made in house; host or cells: E. coli BL21(DE3)
T1 sequence (P05364 21-381): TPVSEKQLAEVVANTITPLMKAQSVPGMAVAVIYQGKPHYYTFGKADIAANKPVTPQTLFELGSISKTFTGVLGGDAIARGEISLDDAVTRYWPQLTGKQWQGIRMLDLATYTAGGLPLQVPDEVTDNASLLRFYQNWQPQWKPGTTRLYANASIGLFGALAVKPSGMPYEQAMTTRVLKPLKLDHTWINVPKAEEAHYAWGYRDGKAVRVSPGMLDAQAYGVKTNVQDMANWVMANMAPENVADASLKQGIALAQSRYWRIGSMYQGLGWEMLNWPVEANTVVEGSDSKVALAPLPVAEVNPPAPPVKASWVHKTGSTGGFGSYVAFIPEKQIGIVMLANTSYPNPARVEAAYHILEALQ
In words: β-lactamase enzyme inhibition assay, p99 AmpC (nitrocefin substrate). The class given is biochemical. The protocol:
(§3) For SHV-5, Kpc-2, p99AmpC and OXA-1 β-lactamases, E. coli BL21(DE3) bacterial cells carrying expression plasmids (expressed as native untagged proteins) for the individual β-lactamases were grown in 1 L of Superbroth (Teknova Inc. Hollister, Calif.) supplemented with 100 μg/ml kanamycin selection and 1×5052 (0.5% glycerol, 0.05% glucose and 0.2% α-lactose) at 35° C. for 18-20 hours. Cells were harvested by centrifugation (4,000×g, 4° C., 20 min), resuspended in 50 ml of 10 mM HEPES pH 7.5 ( 1/20 of the initial volume). The cells were lysed by sonication (5 pulses of 45 seconds) at 45 W on ice. The lysates were clarified by centrifugation at 10,000×g for 40 minutes at 4° C. Samples were diluted 5-fold in 50 mM sodium acetate pH 5.0, stored overnight at 4° C., after which they were centrifuged at 10,000×g for 30 minutes to clarify, and filtered through 0.45 μm filters. The samples were loaded onto a 5 ml Capto S sepharose cation exchange column (GE Healthcare) pre-equilibrated with 50 mM sodium acetate pH 5.0. The column was washed with 5 column volumes of 50 mM sodium acetate pH 5.0 to wash out unbound protein and a linear gradient of NaCl (0 to 500 mM) was used to elute the protein (over 16 CV) from the column. Fractions were assayed for β-lactamase activity using Centa (Calbiochem, Gibbstown, N.J.) or Nitrocefin (EMD Millipore chemicals, Darmstadt, Germany) as a reporter β-lactamase substrate for activity in the isolated fractions. Active fractions were pooled, concentrated and further purified by gel filtration chromatography on a Superdex 75 prep grade gel filtration column (GE Healthcare, Piscataway, N.J.) pre-equilibrated in 50 mM Hepes pH 7.5, 150 mM NaCl. Active fractions were pooled concentrated, quantitated by BCA protein determination (Thermo Scientific, Rockford, Ill.), dialyzed into PBS and frozen at −80° C. in 20% glycerol until use.
(§4) An equal volume of diluted enzyme stock was added, and the plates were incubated at 37° C. for 15 min. Nitrocefin was used as substrate for p99 AmpC, VIM-2 and OXA-1 and dispensed into each well at a final concentration of 100 μM. Absorbance at 486 nm was immediately monitored for 10 min using a Biotek Powerwave XS2 microplate spectrophotometer using the GEN5 software package (Biotek Instruments, Winooski Vt.). In an analogous fashion, imipenem was used as substrate for Kpc-2 and Cefotaxime was used for SHV-5, while changes in absorbance upon hydrolysis of the β-lactam ring were monitored at 300 nm and 260 nm respectively in UV-transparent 96-well microtiter assay plates. Maximum rates of hydrolysis were compared to those in control wells (without inhibitors), and percentages of enzyme inhibition were calculated for each concentration of inhibitor. The concentration of inhibitor needed to reduce the initial rate of hydrolysis of substrate by 50% (IC50) was calculated as the residual activity of β-lactamase at 486 nm using GraFit version 7 kinetics software package (Erithacus Software, Surrey, UK).
(§5) Using the methodology described above, examples of the current invention were evaluated for their ability to inhibit β-lactamase enzymes from all four Ambler classifications (A through D). […] NT=Not tested.

The next test deals with T2, SHV-5 (Klebsiella pneumoniae, UniProt P0A3M1).
T2 construct: made in house; host or cells: E. coli BL21(DE3)
T2 sequence (P0A3M1 22-286): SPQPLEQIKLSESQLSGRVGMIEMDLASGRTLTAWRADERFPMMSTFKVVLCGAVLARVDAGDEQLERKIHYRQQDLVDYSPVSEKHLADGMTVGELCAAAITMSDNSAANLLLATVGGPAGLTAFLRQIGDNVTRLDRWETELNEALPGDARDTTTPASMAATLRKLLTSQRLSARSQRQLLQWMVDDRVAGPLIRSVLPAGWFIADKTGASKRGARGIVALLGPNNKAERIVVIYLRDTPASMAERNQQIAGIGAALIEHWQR
In words: β-lactamase enzyme inhibition assay, SHV-5 (cefotaxime substrate). In kind it is biochemical. How it is done:
as §3, §4, §5

In a further test the target is T3, KPC-2 (Klebsiella pneumoniae, UniProt Q9F663).
T3 construct: made in house; host or cells: E. coli BL21(DE3)
T3 sequence (Q9F663 25-293, looked up): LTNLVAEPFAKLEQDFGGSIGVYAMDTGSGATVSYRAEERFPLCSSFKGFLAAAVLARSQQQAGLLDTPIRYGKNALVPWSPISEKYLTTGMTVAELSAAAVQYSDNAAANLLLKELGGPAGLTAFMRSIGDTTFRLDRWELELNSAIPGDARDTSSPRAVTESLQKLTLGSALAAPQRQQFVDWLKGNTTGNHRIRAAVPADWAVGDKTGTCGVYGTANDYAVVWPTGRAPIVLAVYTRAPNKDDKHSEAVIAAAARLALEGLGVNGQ
In words: β-lactamase enzyme inhibition assay, KPC-2 (imipenem substrate). In kind it is biochemical. Particulars: Class A; imipenem substrate, 300 nm; read-out: KPC-2. How it is done: as §3, §4, §5

Another test addresses T4, VIM-2 (Escherichia coli, UniProt Q5U7L7).
T4 construct: made in house; host or cells: E. coli BL21(DE3)
In words: β-lactamase enzyme inhibition assay, VIM-2 (nitrocefin substrate). The class given is biochemical. Particulars: Class B; nitrocefin substrate, 486 nm; read-out: VIM-2. How it is done:
For Vim-2 metallo β-lactamase, the procedure was identical with the following exceptions, first the protein was not pH adjusted to pH 5 with 50 mM sodium acetate, second, the chromatography step was changed to a 5 ml Q sepharose anion exchange column pre-equilibrated with 50 mM Hepes pH 7.5, and elution of the protein was achieved by a linear gradient of NaCl (0-600 mM). Finally, the VIM-2 purification required a second run (3rd step) on the Q sepharose anion exchange column to achieve acceptable purity (>90%).
as §4, §5

Test [2] relates to K. pneumoniae expressing the Class A carbapenemase KPC-2. In words: Broth microdilution MIC assay with meropenem, K. pneumoniae KPC-2. In kind it is cell-based. Particulars: for MIC (μg/mL) of Exemplary Compounds in presence of fixed β-lactams: K. p. 156319 KPC-3: Fixed Mero (meropenem) 4 μg/mL.
Text: as §1, §2
In general terms: In broth dilution the organism is exposed to a series of concentrations in liquid medium.

The target in another test is OXA-48 (UniProt Q6XEC0). In words: β-lactamase enzyme inhibition assay, Class D oxacillinase. In kind it is biochemical. Particulars: read-out: OXA-48.
The subject of test [3] is K. pneumoniae expressing the class A carbapenemase KPC-2 and the class B carbapenemase VIM-4. In words: Broth microdilution MIC assay with meropenem, K. pneumoniae KPC-2 and VIM-4. Particulars: for MIC (μg/mL) of Exemplary Compounds in presence of fixed β-lactams: K. p. A-1797 KPC-2 VIM-4: Fixed Mero (meropenem) 4 μg/mL. In kind it is cell-based.
Text: as §1, §2

In test [4] the test system is E. coli expressing the Class A Extended Spectrum Beta-Lactamase (ESBL) CTX-M-15. In words: Broth microdilution MIC assay with ceftazidime, E. coli CTX-M-15. The following applies: Fixed CAZ (ceftazidime) 4 μg/mL; E. coli ESBL4 CTX-M-15. The class given is cell-based.
Text: as §1, §2

Test [5] concerns P. aeruginosa expressing the Class B carbapenemase VIM-2. In words: Broth microdilution MIC assay with meropenem, P. aeruginosa VIM-2. The class given is cell-based.
Text: as §1, §2

Where [6] appears, read: Klebsiella pneumoniae, read-out: MIC alone.

`CCOC(=O)c1nnn(CC(=O)N[C@H]2Cc3cccc(C(=O)O)c3OB2O)c1C(=O)OCC` [Example 11, (R)-3-(2-(4,5-bis(ethoxycarbonyl)-1H-1,2,3-triazol-1-yl)acetamido)-2-hydroxy-3,4-dihydro-2H-benzo[e][1,2]oxaborinine-8-carboxylic acid]: the “MIC (μg/mL) of Exemplary Compounds in presence of fixed β-lactams: K. p. 11978 OXA-48” value in [1] is recorded as “A (A represents an MIC>16 μg/mL)”. The IC50 against AmpC is less than 100 nM; on SHV-5, less than 100 nM; at KPC-2 it was less than 100 nM; at VIM-2 it was 1000 to 10000 nM; on OXA-48 it was less than 100 nM. Besides, the “MIC (μg/mL) of Exemplary Compounds in presence of fixed β-lactams: K. p. 156319 KPC-3” value in test [2] is “B (B represents an MIC between 1 and 16 μg/mL inclusive)”. Also, the “MIC (μg/mL) of Exemplary Compounds in presence of fixed β-lactams: K. p. A-1797 KPC-2 VIM-4” value in test [3] was “B (B represents an MIC between 1 and 16 μg/mL inclusive)”. Also, in test [4], the “MIC (μg/mL) of Exemplary Compounds in presence of fixed β-lactams: E. coli ESBL4 CTX-M-15” value is “B (B represents an MIC between 1 and 16 μg/mL inclusive)”.
As to `NCC#Cc1c(CN)nnn1CC(=O)N[C@H]1Cc2cccc(C(=O)O)c2OB1O` [Example 109, (R)-3-(2-(4-(aminomethyl)-5-(3-aminoprop-1-yn-1-yl)-1H-1,2,3-triazol-1-yl)acetamido)-2-hydroxy-3,4-dihydro-2H-benzo[e][1,2]oxaborinine-8-carboxylic acid], the “MIC (μg/mL) of Exemplary Compounds in presence of fixed β-lactams: K. p. 11978 OXA-48” value in test [1] was “B (B represents an MIC between 1 and 16 μg/mL inclusive)”. Besides, the IC50 at AmpC is 100 to 1000 nM; against SHV-5, 100 to 1000 nM; at KPC-2 it was 100 to 1000 nM; at VIM-2, less than 100 nM; at OXA-48, less than 100 nM. Also, the “MIC (μg/mL) of Exemplary Compounds in presence of fixed β-lactams: P. aerug. 2775 VIM-2” value in test [5] (Fixed Mero (meropenem) 4 μg/mL, P. aerug. 2775 VIM-2) was “C (C represents an MIC of <1 μg/mL)”. In addition, the “MIC (μg/mL) of Exemplary Compounds in presence of fixed β-lactams: K. p. 156319 KPC-3” value in test [2] was “B (B represents an MIC between 1 and 16 μg/mL inclusive)”. Moreover, the “MIC (μg/mL) of Exemplary Compounds in presence of fixed β-lactams: K. p. A-1797 KPC-2 VIM-4” value in [3] was “C (C represents an MIC of <1 μg/mL)”. In [4], the “MIC (μg/mL) of Exemplary Compounds in presence of fixed β-lactams: E. coli ESBL4 CTX-M-15” value is recorded as “C (C represents an MIC of <1 μg/mL)”.
As for `C[C@@H](O)[C@H]1C(=O)N2C(C(=O)O)=C(S[C@@H]3CN[C@H](C(=O)N(C)C)C3)[C@H](C)[C@H]12` [Meropenem, meropenem, reference compound], the MIC in [1] (setting [6]) is 128 µg/mL; in test [5] (Pseudomonas aeruginosa, read-out: MIC alone), 16 µg/mL; in test [2] (setting [6]), greater than 128 µg/mL; in test [3] (setting [6]), 64 µg/mL.

A word on the MIC: it is the lowest concentration that inhibits growth of the organism.
